Experimental data published in US20240254138A1, “TRICYCLIC PYRIMIDINES AS CYCLIN-DEPENDENT KINASE 7 (CDK7) INHIBITORS” (JANSSEN PHARMACEUTICA NV, priority 2021, published 2024).
Like-named read-outs stand apart in the source and are kept apart here.

Tests used:
[1] = target: CDK7/cyclinH/MAT1 trimeric complex (Homo sapiens, UniProt P50613); assay: In vitro CDK7 assay, potency of irreversible covalent inhibitors (kinact/KI), coupled PK/LDH ADP readout at 340 nm
[2] = system: RNA Polymerase II Serine 5 phosphorylation in A549 cells overexpressing CDK7-mutant (C312S); assay: Imaging-based cellular RNA PolII Ser5 phosphorylation assay in A549 cells overexpressing CDK7-mutant (C312S); type: cell-based, human; settings: for IC50: Homo sapiens; for CDK7_A549 mutant hCDK7(pIC50): A549 cells overexpressing CDK7-mutant (C312S)
Outline: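 Readout was automated imaging of anti-phospho-Ser5 Rpb1 CTD immunofluorescence, with IC50 fitted to % control versus concentration. Cells were A549 stably overexpressing non-covalently targetable CDK7 C312S alongside wild-type, exposed to compound 3 h at 37 °C. DMSO and 10 μM reference compound served as controls.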

[3] = system: RNA Polymerase II Serine 5 phosphorylation (Rpb1 CTD, downstream substrate of CDK7) in A549 cells; assay: Imaging-based cellular RNA PolII Ser5 phosphorylation assay in A549 cells; type: cell-based, human; settings: for IC50: Homo sapiens; for CDK7_A549 Wild-type CDK7 (pIC50): A549 cells
Outline: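 IC50 derived by fitting % control (DMSO high, 10 μM reference low) against concentration, with Hill slope. Readout: high-content imaging of phospho-Ser5 Rpb1 CTD antibody staining in fixed, permeabilized A549 cells exposed to compound 3 h after 20 h culture in 1% FBS DMEM.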

[4] = read-out: CDK7 (20 nM enz.) (kobs/[I], M^−1*s^−1), 20 nM enzyme
[5] = A549, A549 cells overexpressing CDK7-mutant (C312S), RNA PolII Ser5 phosphorylation, averaged over all measurements, read-out: CDK7_A549 mutant hCDK7(pIC50) (converted)
[6] = A549, A549 cells, wild-type CDK7, RNA PolII Ser5 phosphorylation, averaged over all measurements, read-out: CDK7_A549 Wild-type CDK7 (pIC50) (converted)
[7] = CDK7 (20 nM enz.) (KI, μM), 20 nM enzyme
[8] = read-out: CDK7 (20 nM enz.) (kinact, s^−1), 20 nM enzyme
[9] = read-out: CDK7 (20 nM enz.) (kinact/KI, M^−1*s^−1), 20 nM enzyme
[10] = read-out: CDK7 (kinact/KI, M^−1*s^−1), potency of irreversible covalent inhibitors, 1 mM ATP, room temperature, averaged values over all measurements
[11] = RNA PolII Ser5 phosphorylation, averaged over all measurements
[12] = wild-type CDK7, RNA PolII Ser5 phosphorylation, averaged over all measurements

Chain of CDK7/cyclinH/MAT1 trimeric complex (P50613 whole entry): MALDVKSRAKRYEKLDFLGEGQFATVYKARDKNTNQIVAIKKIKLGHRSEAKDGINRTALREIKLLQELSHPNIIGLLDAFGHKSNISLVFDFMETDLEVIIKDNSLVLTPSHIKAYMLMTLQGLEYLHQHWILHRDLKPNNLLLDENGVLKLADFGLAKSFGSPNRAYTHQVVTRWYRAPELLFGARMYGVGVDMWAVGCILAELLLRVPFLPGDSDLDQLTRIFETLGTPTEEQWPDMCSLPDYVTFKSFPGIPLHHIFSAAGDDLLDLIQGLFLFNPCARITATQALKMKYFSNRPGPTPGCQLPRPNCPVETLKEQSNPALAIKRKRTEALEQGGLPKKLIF
Chain of CDK7/cyclinH/MAT1 trimeric complex (P51946 whole entry partner): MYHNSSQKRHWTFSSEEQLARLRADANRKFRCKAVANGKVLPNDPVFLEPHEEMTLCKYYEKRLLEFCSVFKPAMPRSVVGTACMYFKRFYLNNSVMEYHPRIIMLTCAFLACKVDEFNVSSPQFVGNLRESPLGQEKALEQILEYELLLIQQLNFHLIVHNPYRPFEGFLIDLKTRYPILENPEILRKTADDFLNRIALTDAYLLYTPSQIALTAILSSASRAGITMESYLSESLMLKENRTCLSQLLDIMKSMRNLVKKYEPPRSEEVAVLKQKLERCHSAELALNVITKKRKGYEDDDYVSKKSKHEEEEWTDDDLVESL
Chain of CDK7/cyclinH/MAT1 trimeric complex (P51948 whole entry partner): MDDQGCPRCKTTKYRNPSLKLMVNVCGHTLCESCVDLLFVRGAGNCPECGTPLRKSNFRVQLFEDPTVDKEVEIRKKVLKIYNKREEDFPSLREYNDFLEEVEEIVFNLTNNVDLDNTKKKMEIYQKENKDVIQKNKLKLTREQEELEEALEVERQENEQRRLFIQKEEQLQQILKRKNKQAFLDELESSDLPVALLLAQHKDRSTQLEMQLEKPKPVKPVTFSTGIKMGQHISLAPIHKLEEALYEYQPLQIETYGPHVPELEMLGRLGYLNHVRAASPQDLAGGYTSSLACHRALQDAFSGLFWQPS

Row | SMILES | IC50 [2, 5] [nM] | IC50 [3, 6] [nM] | Ki [1, 7] [µM] | kinact [1, 8] [s⁻¹] | kinact/KI [1, 9] [M⁻¹ s⁻¹] | also measured
1 | CC#CC(=O)N1CCC(N2CC(c3cc4c(c(-c5ncc[nH]5)n3)OCc3c(N5CCOCC5)ccnc3N4)C2)CC1 [Compound 364] | > 10000 | 162 | – | – | – | kinact/KI [1, 4]: 464 M⁻¹ s⁻¹
2 | C=CC(=O)N1CC[C@@H](N2CC(c3cc4c(c(C#N)n3)O[C@H](C)c3c(N5CCOCC5)ccnc3N4)C2)C1 (single isomer, unassigned) [Compound 506] | 8320 | 102 | – | – | – | kinact/KI [1, 4]: 348 M⁻¹ s⁻¹
3 | C=CC(=O)N1CC(N2CCC(c3cc4c(c(C#N)n3)OCc3c(-c5cnn(C)c5)ccnc3N4)CC2)C1 [Compound 298] | > 10000 | 263 | 0.0311 | 8.92e-05 | 2870 | –
4 | C=CC(=O)N1CC(N2CCC(c3ccc4c(c3)Nc3nccc(N5C[C@H]6CC[C@@H](C5)O6)c3CO4)CC2)C1 [Compound 11] | > 10000 | 87.1 | – | – | – | kinact/KI [1, 10]: 688 M⁻¹ s⁻¹
5 | C=CC(=O)N1CC[C@@H](N2CC(c3cc4c(c(C5CC5)n3)O[C@H](C)c3c(N5CCOCC5)ccnc3N4)C2)C1 (single isomer, unassigned) [Compound 469] | > 10000 | 2140 | 1.32 | 4.03e-05 | 30.5 | –
6 | C=CC(=O)N1CC[C@H](N2CC(c3cc4c(c(C)n3)O[C@H](C)c3c(-c5cnn(C)c5)ccnc3N4)C2)C1 (single isomer, unassigned) [Compound 478] | > 10000 | 158 | – | – | 292 | –
7 | CC#CC(=O)N1CC[C@@H](N2CCC(c3cc4c(c(C)n3)OCc3c(-c5cnn(C)c5)ccnc3N4)CC2)C1 (single isomer, unassigned) [Compound 299] | > 10000 | 87.1 | 0.0959 | 5.9e-05 | 615 | –
8 | C=CC(=O)N1CC[C@H](N2CC(c3cc4c(c(C5CC5)n3)O[C@@H](C)c3c(N5CCOCC5)ccnc3N4)C2)C1 (single isomer, unassigned) [Compound 466] | > 10000 | 123 | 0.0307 | 5.02e-05 | 1630 | –
9 | CC#CC(=O)N1CCC(N2CC(c3cc4c(c(C(F)(F)F)n3)O[C@H](C)c3c(N5CCOCC5)ccnc3N4)C2)CC1 (single isomer, unassigned) [Compound 505] | 2400 | 38 | – | – | 246 | –
10 | C=C(C(=O)N1CC[C@@H](N2CCC(c3cc4c(c(C)n3)OCc3c(-c5cnn(C)c5)ccnc3N4)CC2)C1)n1cccn1 (single isomer, unassigned) [Compound 365] | > 10000 | 43.7 | 0.046 | 4.07e-05 | 885 | –
11 | C=CC(=O)N1CC[C@H](N2CC(c3cc4c(c(C5CC5)n3)OCc3c(N5CCOCC5)ccnc3N4)C2)C1 (single isomer, unassigned) [Compound 447] | – | – | 0.143 | – | – | CDK7 (20 nM enz.) (kinact, s^−1) ([1]; 20 nM enzyme): 7.882e-05 s⁻¹; CDK7 (20 nM enz.) (kinact/KI, M^−1*s^−1) ([1]; 20 nM enzyme): 551.654 M⁻¹ s⁻¹; CDK7_A549 mutant hCDK7(pIC50) [2, 11]: ~5; CDK7_A549 Wild-type CDK7 (pIC50) [3, 12]: 6.77
12 | C=CC(=O)N1CC(N2CC(c3cc4c(c(C)n3)OCc3c(N5CCOCC5)ccnc3N4)C2)C1 [Compound 273] | – | – | 0.0474 | – | – | CDK7 (20 nM enz.) (kinact, s^−1) ([1]; 20 nM enzyme): 4.486e-05 s⁻¹; CDK7 (20 nM enz.) (kinact/KI, M^−1*s^−1) ([1]; 20 nM enzyme): 945.57 M⁻¹ s⁻¹; CDK7_A549 mutant hCDK7(pIC50) [2, 11]: <5; CDK7_A549 Wild-type CDK7 (pIC50) [3, 12]: 6.94
13 | CC#CC(=O)N1CC(N2CC[C@H](c3cc4c(c(C)n3)O[C@@H](C)c3c(N5CCOCC5)ccnc3N4)N(C)CC2)C1 (single isomer, unassigned) [Compound 528] | > 10000 | 603 | 0.0976 | 1.7e-05 | 174 | –
14 | C=CC(=O)N1CCC(N2CC(c3cc4c(c(C)n3)O[C@H](C)c3c(C5CCOCC5)ccnc3N4)C2)CC1 (single isomer, unassigned) [Compound 465] | 7080 | 72.4 | 0.0329 | 2.79e-05 | 848 | –
15 | C=CC(=O)N1CCC(N2CCC(c3ccc4c(c3)Nc3nccc(N5CCS(=N)(=O)CC5)c3CO4)CC2)CC1 [Compound 113] | > 10000 | 380 | 0.39 | 6.16e-05 | 158 | –
16 | C=CC(=O)N1CC(N2CCC(c3ccc4c(c3)Nc3nccc(N5CCOCC5)c3[C@H](C)O4)CC2)C1 (single isomer, unassigned) [Compound 92] | > 10000 | 126 | 0.0777 | 4.72e-05 | 622 | –
17 | COC(=O)/C=C/C(=O)N1CC[C@H](N2CCC(c3cc4c(c(C)n3)OCc3c(-c5cnn(C)c5)ccnc3N4)CC2)C1 (single isomer, unassigned) [Compound 297] | > 10000 | ~23.4 | – | – | – | kinact/KI [1, 4]: 1240 M⁻¹ s⁻¹
18 | C=CC(=O)N1CC[C@@H](N2CC(c3cc(C)c4c(c3)Nc3nccc(N5CCOCC5)c3CO4)C2)C1 (single isomer, unassigned) [Compound 149] | > 10000 | 50.1 | 0.0542 | 6.66e-05 | 1230 | –
19 | C=CC(=O)Nc1ccc(CNc2ccc3c(c2)Nc2nccc(N4CCOCC4)c2CO3)cn1 [Compound 16] | 3800 | 45.7 | 0.0286 | 3.3e-05 | 1160 | kinact/KI [1, 10]: 402 M⁻¹ s⁻¹
20 | C=CC(=O)N1CC(N2CC[C@@H](c3cc4c(c(C)n3)O[C@H](C)c3c(N5CCOCC5)ccnc3N4)C2)C1 (single isomer, unassigned) [Compound 245] | > 10000 | 56.2 | 0.0559 | 3.61e-05 | 645 | –
21 | C=CC(=O)N1CC[C@@H](N2CC(c3cc(C)c4c(c3)Nc3nccc(N5CCOCC5)c3[C@@H](C)O4)C2)C1 (single isomer, unassigned) [Compound 230] | 6760 | 20 | – | – | – | kinact/KI [1, 4]: 791 M⁻¹ s⁻¹
22 | CC#CC(=O)N1CC(n2cc(-c3cc(C)c4c(c3)Nc3nccc(N5CCOCC5)c3CO4)cn2)C1 [Compound 333] | 6760 | 178 | 0.11 | 2.12e-05 | 193 | –
23 | C=CC(=O)N1CC(N2CCC(c3ccc4c(c3)OCc3c(-c5cnn(C)c5)ccnc3N4)CC2)C1 [Compound 52] | 2820 | 282 | – | – | – | Ki ([1]; CDK7 (KI(μM)), […], 1 mM ATP, room temperature, averaged values over all measurements): 0.166 µM; kinact ([1]; read-out: CDK7 (kinact, s^−1), kinact = maximal rate of inactivation, 1 mM ATP, room temperature, averaged values over all measurements): 0.000166 s⁻¹; kinact/KI [1, 10]: 998 M⁻¹ s⁻¹
24 | C=CC(=O)N1CCC(n2cc(-c3cc(C)c4c(c3)Nc3nccc(N5CCOCC5)c3CO4)cn2)CC1 [Compound 379] | 7080 | 224 | 0.0333 | 1.58e-05 | 475 | –
25 | C=CC(=C)N1CC(N2CCC(c3cc4c(cc3C)OCc3c(N5CCOCC5)ccnc3N4)CC2)C1 [Compound 19] | – | – | – | – | – | kinact/KI ([1]; read-out: CDK7 (kinact/KI, M^−1*s^−1)): 304 M⁻¹ s⁻¹; IC50 ([2]; A549, read-out: CDK7_A549 mutant hCDK7(pIC50) (converted)): > 10000 nM; IC50 ([3]; A549, read-out: CDK7_A549 Wild-type CDK7 (pIC50) (converted)): 166 nM
26 | C=CC(=O)N1CC(N2CCCN(C)[C@H](c3cc(C)c4c(c3)Nc3nccc(C5CCOCC5)c3CO4)C2)C1 (single isomer, unassigned) [Compound 255] | > 10000 | 3020 | 10.7 | 3.55e-05 | 3.33 | –
27 | CC#CC(=O)N1CC(N2CCC(c3cc4c(c(C#N)n3)O[C@@H](C)c3c(N5CCOCC5)ccnc3N4)CC2)C1 (single isomer, unassigned) [Compound 542] | – | – | 0.0082 | – | – | CDK7 (20 nM enz.) (kinact, s^−1) ([1]; 20 nM enzyme): 0.0000556 s⁻¹; CDK7 (20 nM enz.) (kinact/KI, M^−1*s^−1) ([1]; 20 nM enzyme): 6751 M⁻¹ s⁻¹; CDK7_A549 mutant hCDK7(pIC50) [2, 11]: <5; CDK7_A549 Wild-type CDK7 (pIC50) [3, 12]: 6.62
28 | C=C(C(=O)N1CC[C@H](N2CCC(c3cc4c(c(C)n3)OCc3c(-c5cnn(C)c5)ccnc3N4)CC2)C1)n1cccn1 (single isomer, unassigned) [Compound 372] | > 10000 | 70.8 | 0.0621 | 3.74e-05 | 603 | –
29 | C=CC(=O)N1CC(N2CCC(c3cc(Cl)c4c(c3)Nc3nccc(N5CCOCC5)c3CO4)CC2)C1 [Compound 29] | ~7760 | 38.9 | – | – | 1030 | –
30 | C=CC(=O)N1CCC(N2CC(c3cc4c(c(C(F)(F)F)c3)OCc3c(-c5cnn(C)c5)ccnc3N4)C2)CC1 [Compound 102] | 3550 | 40.7 | 0.0268 | 4.38e-05 | 1630 | –
